Reference: patent US20250333406A1, “SULFONYL CYCLIC DERIVATIVES, AND COMPOSITIONS AND METHODS THEREOF” (Lysoway Therapeutics, Inc., priority 2023, published 2025)

What was measured:
TRPMLs = conditions: cited from earlier work
TRPML1 = conditions: cited from earlier work
[1] = system: TRPML-like current (IML-L); conditions: ML4 (ML1−/−) human fibroblasts; cited from earlier work
[2] = target: T1, TRPML-like current (IML-L) (Homo sapiens, UniProt Q9GZU1); conditions: wild-type (WT; ML1+/+) human fibroblasts; cited from earlier work
T1 construct: endogenous in cells; host or cells: human fibroblasts (WT ML1+/+; ML4 ML1-/- as negative control)
T1 sequence (Q9GZU1 whole entry): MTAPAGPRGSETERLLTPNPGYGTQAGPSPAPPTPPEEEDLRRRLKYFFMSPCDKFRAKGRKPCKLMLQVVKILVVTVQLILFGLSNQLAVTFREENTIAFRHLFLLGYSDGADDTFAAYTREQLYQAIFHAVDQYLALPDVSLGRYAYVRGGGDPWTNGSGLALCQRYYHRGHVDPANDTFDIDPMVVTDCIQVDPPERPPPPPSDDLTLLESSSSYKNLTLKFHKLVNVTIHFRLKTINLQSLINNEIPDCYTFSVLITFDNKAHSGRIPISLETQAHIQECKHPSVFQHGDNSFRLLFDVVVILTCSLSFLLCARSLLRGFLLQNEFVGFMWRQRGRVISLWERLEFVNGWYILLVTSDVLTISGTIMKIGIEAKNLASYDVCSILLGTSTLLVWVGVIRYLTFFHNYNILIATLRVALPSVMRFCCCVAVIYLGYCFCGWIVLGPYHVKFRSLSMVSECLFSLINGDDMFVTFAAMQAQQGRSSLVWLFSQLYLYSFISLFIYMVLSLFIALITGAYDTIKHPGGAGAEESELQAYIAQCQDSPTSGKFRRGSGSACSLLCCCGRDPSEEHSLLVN

ML1-4A = target: T2, ML1-4A (Homo sapiens, UniProt Q9GZU1, L15A/L16A); conditions: HEK293 cells stably or transiently expressing ML1-4A; cited from earlier work
T2 construct: host or cells: HEK293 (stably or transiently transfected)
T2 sequence (Q9GZU1 with tags, fused parts or gaps L15A/L16A limits assumed): as the sequence (Q9GZU1 whole entry) above, with L15A, L16A, L577A, L578A counted along it

TRPML3 = target: T3, TRPML3 (Homo sapiens, UniProt Q8TDD5); conditions: cited from earlier work
T3 sequence (Q8TDD5 1-553): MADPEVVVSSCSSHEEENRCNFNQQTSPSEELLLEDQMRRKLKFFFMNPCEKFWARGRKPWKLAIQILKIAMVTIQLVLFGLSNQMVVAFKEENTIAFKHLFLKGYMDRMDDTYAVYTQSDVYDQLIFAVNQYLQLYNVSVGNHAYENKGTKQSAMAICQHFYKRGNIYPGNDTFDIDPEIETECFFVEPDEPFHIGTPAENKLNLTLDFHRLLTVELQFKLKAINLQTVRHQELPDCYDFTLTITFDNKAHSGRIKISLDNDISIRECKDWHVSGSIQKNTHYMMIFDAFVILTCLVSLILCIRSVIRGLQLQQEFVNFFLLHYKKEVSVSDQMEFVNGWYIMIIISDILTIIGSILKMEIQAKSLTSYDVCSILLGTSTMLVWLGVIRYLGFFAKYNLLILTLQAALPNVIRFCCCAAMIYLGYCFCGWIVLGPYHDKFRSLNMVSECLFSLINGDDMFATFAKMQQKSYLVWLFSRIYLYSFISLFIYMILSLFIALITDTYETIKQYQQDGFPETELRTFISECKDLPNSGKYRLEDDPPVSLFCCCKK

TRPML2 = target: T4, TRPML2 (Homo sapiens, UniProt Q8IZK6); conditions: cited from earlier work
T4 sequence (Q8IZK6 1-566): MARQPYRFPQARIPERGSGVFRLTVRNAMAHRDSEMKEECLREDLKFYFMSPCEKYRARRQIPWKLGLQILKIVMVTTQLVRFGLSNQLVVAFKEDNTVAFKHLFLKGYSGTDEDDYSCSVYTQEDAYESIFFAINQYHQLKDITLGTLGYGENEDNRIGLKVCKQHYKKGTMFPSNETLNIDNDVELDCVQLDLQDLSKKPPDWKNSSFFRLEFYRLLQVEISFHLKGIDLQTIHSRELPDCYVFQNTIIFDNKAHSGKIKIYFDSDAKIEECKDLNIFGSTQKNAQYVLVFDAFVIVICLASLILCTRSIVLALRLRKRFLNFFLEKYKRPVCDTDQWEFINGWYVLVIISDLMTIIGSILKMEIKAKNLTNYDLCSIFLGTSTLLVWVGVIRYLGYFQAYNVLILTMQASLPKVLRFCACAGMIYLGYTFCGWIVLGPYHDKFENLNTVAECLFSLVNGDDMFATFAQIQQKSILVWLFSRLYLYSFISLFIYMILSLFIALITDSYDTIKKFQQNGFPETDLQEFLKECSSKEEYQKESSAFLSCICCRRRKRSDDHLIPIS

TFEB = TFEB Nuclear Translocation Assay; assay type: cell-based; conditions: read-out: EC50 of TFEB activation

Compound: CC1CC(C)(C)N(C(=O)CN2C(=O)c3ccccc3C2=O)c2ccccc21 (centres unmarked) [ML-SA1]
- concentration needed to effectively activate TRPMLs (TRPMLs): ~10 µM
- activation of whole-endolysosome IML1 compared with PI(3,5)P2 (TRPML1; ML-SA1 10 μM, PI(3,5)P2 1 μM): comparable to the effect of the endogenous TRPML agonist PI(3,5)P2 (1 μM)
- activation of whole-cell IML1-4A and whole-endolysosome IML1 (TRPML1): robustly activated
- activation of whole-endolysosome IML-L [1]: not
- activation of whole-endolysosome IML-L [2]: activated
- [Ca2+]cyt increases (ML1-4A): significant [Ca2+]cyt increases
- activation of whole-cell ITRPML3 (TRPML3): activated
- activation of whole-cell ITRPML2 (TRPML2): activated

Compound: CC(C)S(=O)(=O)n1ccc(S(=O)(=O)n2nc(N3CCN(c4ncc(F)cc4F)CC34CC4)c3c(F)cc(Cl)cc32)c1 [Compound 168, 6-chloro-3-[7-(3,5-difluoro-2-pyridyl)-4,7-diazaspiro [2.5]octan-4-yl]-4-fluoro-1-(1-isopropylsulfonylpyrrol-3-yl) sulfonyl-indazole]
- EC50 (TFEB): ≤ 1 µM

Compound: CC(C)S(=O)(=O)c1ccc(S(=O)(=O)n2nc(N3CCN(c4ncc(F)cn4)CC34CC4)c3c(Cl)cc(F)cc32)s1 [Compound 38, 4-chloro-6-fluoro-3-(7-(5-fluoropyrimidin-2-yl)-4,7-diazaspiro [2.5]octan-4-yl)-1-((5-(isopropylsulfonyl)thiophen-2-yl)sulfonyl)-1H-indazole]
- EC50 (TFEB): ≤ 1 µM

Compound: CC(C)(C)S(=O)(=O)n1ccc(S(=O)(=O)n2nc(N3CCN(c4ncc(F)cn4)CC34CC4)c3c(F)cc(F)cc32)c1 [Compound 172, 1-((1-(tert-butylsulfonyl)-1H-pyrrol-3-yl)sulfonyl)-4,6-difluoro-3-(7-(5-fluoropyrimidin-2-yl)-4,7-diazaspiro [2.5]octan-4-yl)-1H-indazole]
- EC50 (TFEB): ≤ 1 µM

Compound: O=C(N1CCN(c2nn(S(=O)(=O)c3ccc(C(F)F)cc3)c3cccc(Cl)c23)C(C(F)(F)F)C1)C(F)(F)F (centres unmarked) [Compound 76, 1-[4-[4-chloro-1-[4-(difluoromethyl)phenyl]sulfonyl-indazol-3-yl]-3-(trifluoromethyl)piperazin-1-yl]-2,2,2-trifluoro-ethanone]
- EC50 (TFEB): ≤ 1 µM

Compound: CC(C)S(=O)(=O)n1ccc(S(=O)(=O)n2nc(N3CCN(c4ncc(Cl)cc4F)CC34CC4)c3c(Cl)ccnc32)c1 [Compound 152, 4-chloro-3-[7-(5-chloro-3-fluoro-2-pyridyl)-4,7-diazaspiro [2.5]octan-4-yl]-1-(1-isopropylsulfonylpyrrol-3-yl) sulfonyl-pyrazolo [3,4-b]pyridine]
- EC50 (TFEB): ≤ 1 µM

Compound: CC(C)S(=O)(=O)n1ccc(S(=O)(=O)n2nc(N3CCN(c4ncc(Cl)cc4F)CC34CC4)c3c(Cl)cncc32)c1 [Compound 151, 4-chloro-3-[7-(5-chloro-3-fluoro-2-pyridyl)-4,7-diazaspiro [2.5]octan-4-yl]-1-(1-isopropylsulfonylpyrrol-3-yl) sulfonyl-pyrazolo [3,4-c]pyridine]
- EC50 (TFEB): ≤ 1 µM

Compound: CC(C)S(=O)(=O)c1ccc(S(=O)(=O)n2nc(N3CCN(C(=O)C(F)(F)F)CC34CC4)c3c(Cl)cccc32)s1 [Compound 9, 1-[4-[4-chloro-1-[(5-isopropylsulfonyl-2-thienyl)sulfonyl]indazol-3-yl]-4,7-diazaspiro [2.5]octan-7-yl]-2,2,2-trifluoro-ethanone]
- EC50 (TFEB): ≤ 1 µM

Compound: CC(C)S(=O)(=O)n1ccc(S(=O)(=O)n2nc(N3CCN(c4ncccc4F)CC34CC4)c3c(Cl)cc(F)cc32)c1 [Compound 162, 4-chloro-6-fluoro-3-[7-(3-fluoro-2-pyridyl)-4,7-diazaspiro [2.5]octan-4-yl]-1-(1-isopropylsulfonylpyrrol-3-yl) sulfonyl-indazole]
- EC50 (TFEB): ≤ 1 µM

Compound: CC(C)S(=O)(=O)c1ccc(S(=O)(=O)n2nc(N3CCN(c4ncc(F)cn4)CC34CC4)c3c(Cl)cccc32)s1 [Compound 44, 4-chloro-3-[7-(5-fluoropyrimidin-2-yl)-4,7-diazaspiro [2.5]octan-4-yl]-1-[(5-isopropylsulfonyl-2-thienyl)sulfonyl]indazole]
- EC50 (TFEB): ≤ 1 µM

Compound: CC(C)S(=O)(=O)c1cccc(S(=O)(=O)n2nc(N3CCN(c4ncc(Cl)cn4)CC34CC4)c3c(Cl)cccc32)c1 [Compound 4, 4-chloro-3-[7-(5-chloropyrimidin-2-yl)-4,7-diazaspiro [2.5]octan-4-yl]-1-(3-isopropylsulfonylphenyl) sulfonyl-indazole]
- EC50 (TFEB): ≤ 1 µM

Compound: CC(C)S(=O)(=O)c1ccc(S(=O)(=O)n2nc(N3CCN(c4ncc(F)cn4)CC3(C)C)c3c(Cl)cccc32)cc1 [Compound 18, 4-chloro-3-(4-(5-fluoropyrimidin-2-yl)-2,2-dimethylpiperazin-1-yl)-1-((4-(isopropylsulfonyl)phenyl)sulfonyl)-1H-indazole]
- EC50 (TFEB): ≤ 1 µM

Compound: CC(C)S(=O)(=O)n1ccc(S(=O)(=O)n2nc(N3CCN(c4ncc(Cl)cc4F)CC34CC4)c3c(Cl)nccc32)c1 [Compound 153, 4-chloro-3-(7-(5-chloro-3-fluoropyridin-2-yl)-4,7-diazaspiro[2.5]octan-4-yl)-1-((1-(isopropylsulfonyl)-1H-pyrrol-3-yl)sulfonyl)-1H-pyrazolo[4,3-c]pyridine]
- EC50 (TFEB): ≤ 1 µM

Compound: CC(C)S(=O)(=O)c1ccc(S(=O)(=O)n2nc(N3CCN(c4ccc(F)cn4)CC34CC4)c3c(Cl)cccc32)cc1 [Compound 23, 4-chloro-3-[7-(5-fluoro-2-pyridyl)-4,7-diazaspiro [2.5]octan-4-yl]-1-(4-isopropylsulfonylphenyl) sulfonyl-indazole]
- EC50 (TFEB): ≤ 1 µM

Compound: O=S(=O)(c1ccc(C(F)(F)C2CC2)cc1)n1nc(N2CCN(c3ncc(F)cn3)CC23CC3)c2c(Cl)cccc21 [Compound 92, 4-chloro-1-((4-(cyclopropyldifluoromethyl)phenyl)sulfonyl)-3-(7-(5-fluoropyrimidin-2-yl)-4,7-diazaspiro [2.5]octan-4-yl)-1H-indazole]
- EC50 (TFEB): ≤ 1 µM

Compound: CC(C)S(=O)(=O)c1nc(S(=O)(=O)n2nc(N3CCN(c4ncc(F)cn4)CC34CC4)c3c(F)ccc(F)c32)cs1 [Compound 195, 4-((4,7-difluoro-3-(7-(5-fluoropyrimidin-2-yl)-4,7-diazaspiro 12.51 octan-4-yl)-1H-indazol-1-yl)sulfonyl)-2-(isopropylsulfonyl) thiazole]
- EC50 (TFEB): 1 to 10 µM
